ChEMBL document CHEMBL1201862, “PubChem BioAssay data set” (2004)
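The compound was tested at five concentrations on cells cultured in 96-well plates, with a 48-hour exposure period. Here, GI50 denotes the concentration required for 50% inhibition of growth.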 Activity calls are given as the source filed them. Cut-off read from the data, not from the text of the source: active = GI50 up to about 1.1 µM and inactive = higher.

Tests used:
Test in all cases: NCI-60 cell line screen, 48 h
A498 = test system: A498
CCRF-CEM = test system: CCRF-CEM
HT-29 = test system: HT-29
IGROV-1 = test system: IGROV-1
KM12 = test system: KM12
M14 = test system: M14
MDA-MB-435 = test system: MDA-MB-435
OVCAR-3 = test system: OVCAR-3
OVCAR-4 = test system: OVCAR-4
OVCAR-8 = test system: OVCAR-8
PC-3 = test system: PC-3
RPMI-8226 = test system: RPMI-8226
RXF 393 = test system: RXF 393
SF-268 = test system: SF-268
SF-539 = test system: SF-539
SK-MEL-5 = test system: SK-MEL-5
SK-OV-3 = test system: SK-OV-3
SNB-19 = test system: SNB-19
SR = test system: SR
TK-10 = test system: TK-10

O=C1C(Cl)=C(N2CCN(CCOCCO)CC2)C(=O)c2ncccc21
GI50 (A498): > 10 µM (inactive)
GI50 (CCRF-CEM): 0.001 µM (active)
GI50 (HT-29): > 10 µM (inactive)
GI50 (IGROV-1): > 10 µM (inactive)
GI50 (KM12): > 10 µM (inactive)
GI50 (M14): > 10 µM (inactive)
GI50 (MDA-MB-435): 2.65 µM (inactive)
GI50 (OVCAR-3): > 10 µM (inactive)
GI50 (OVCAR-4): > 10 µM (inactive)
GI50 (OVCAR-8): > 10 µM (inactive)
GI50 (PC-3): > 10 µM (inactive)
GI50 (RPMI-8226): 7.1 µM (inactive)
GI50 (RXF 393): 3.69 µM (inactive)
GI50 (SF-268): > 10 µM (inactive)
GI50 (SF-539): > 10 µM (inactive)
GI50 (SK-MEL-5): > 10 µM (inactive)
GI50 (SK-OV-3): > 10 µM (inactive)
GI50 (SNB-19): > 10 µM (inactive)
GI50 (SR): > 10 µM (inactive)
GI50 (TK-10): > 10 µM (inactive)

COc1nc(Cl)c(Cl)c(Cl)n1.COc1nc(Cl)nc(Cl)c1Cl
GI50 (A498): 8.61 µM (inactive)
GI50 (CCRF-CEM): 2.7 µM (inactive)
GI50 (HT-29): 6.9 µM (inactive)
GI50 (IGROV-1): 4.53 µM (inactive)
GI50 (KM12): 0.485 µM (active)
GI50 (M14): 8.36 µM (inactive)
GI50 (MDA-MB-435): 2.97 µM (inactive)
GI50 (OVCAR-3): 3.95 µM (inactive)
GI50 (OVCAR-4): 6.07 µM (inactive)
GI50 (OVCAR-8): 2.89 µM (inactive)
GI50 (PC-3): 2.66 µM (inactive)
GI50 (RPMI-8226): 0.938 µM (active)
GI50 (RXF 393): 10.7 µM (inactive)
GI50 (SF-268): 6.18 µM (inactive)
GI50 (SF-539): 9.35 µM (inactive)
GI50 (SK-MEL-5): 15.2 µM (inactive)
GI50 (SK-OV-3): 10.3 µM (inactive)
GI50 (SNB-19): 4.97 µM (inactive)
GI50 (SR): 0.09 µM (active)
GI50 (TK-10): 8.73 µM (inactive)

CC(C)NC(=O)OCc1c(COC(=O)NC(C)C)c(-c2ccc[n+](COC(=O)C3CC3)c2)n2c1CCC2
GI50 (A498): 35.9 µM (inactive)
GI50 (CCRF-CEM): 30.4 µM (inactive)
GI50 (HT-29): 79.4 µM (inactive)
GI50 (IGROV-1): > 100 µM (inactive)
GI50 (KM12): > 100 µM (inactive)
GI50 (M14): 85.9 µM (inactive)
GI50 (MDA-MB-435): > 100 µM (inactive)
GI50 (OVCAR-3): > 100 µM (inactive)
GI50 (OVCAR-4): 45.8 µM (inactive)
GI50 (OVCAR-8): 55 µM (inactive)
GI50 (PC-3): 50.5 µM (inactive)
GI50 (RPMI-8226): 60.4 µM (inactive)
GI50 (RXF 393): 34.2 µM (inactive)
GI50 (SF-268): 28.4 µM (inactive)
GI50 (SF-539): 44.7 µM (inactive)
GI50 (SK-MEL-5): > 100 µM (inactive)
GI50 (SK-OV-3): 49.5 µM (inactive)
GI50 (SNB-19): > 100 µM (inactive)
GI50 (SR): 3.51 µM (inactive)
GI50 (TK-10): > 100 µM (inactive)

Oc1cc(CN2COc3ccccc32)c(O)cc1CNC1CCCCC1
GI50 (A498): 22 µM (inactive)
GI50 (CCRF-CEM): 4.53 µM (inactive)
GI50 (HT-29): 22 µM (inactive)
GI50 (IGROV-1): 32.8 µM (inactive)
GI50 (KM12): 49.9 µM (inactive)
GI50 (M14): 31.3 µM (inactive)
GI50 (MDA-MB-435): 24.6 µM (inactive)
GI50 (OVCAR-3): 26.2 µM (inactive)
GI50 (OVCAR-4): 20.3 µM (inactive)
GI50 (OVCAR-8): 24 µM (inactive)
GI50 (PC-3): 19.3 µM (inactive)
GI50 (RPMI-8226): 23.8 µM (inactive)
GI50 (RXF 393): 21.5 µM (inactive)
GI50 (SF-268): 16.2 µM (inactive)
GI50 (SF-539): 19.5 µM (inactive)
GI50 (SK-MEL-5): 19.3 µM (inactive)
GI50 (SK-OV-3): 64.9 µM (inactive)
GI50 (SNB-19): > 100 µM (inactive)
GI50 (SR): 20.1 µM (inactive)
GI50 (TK-10): 21.6 µM (inactive)

Cc1ccc2cccc(-c3cccc4ccccc34)c2n1
GI50 (A498): 20.4 µM (inactive)
GI50 (CCRF-CEM): 19.8 µM (inactive)
GI50 (HT-29): 20.7 µM (inactive)
GI50 (IGROV-1): 26.5 µM (inactive)
GI50 (KM12): 15 µM (inactive)
GI50 (M14): 17.2 µM (inactive)
GI50 (MDA-MB-435): 2.69 µM (inactive)
GI50 (OVCAR-3): 25.2 µM (inactive)
GI50 (OVCAR-4): 24.9 µM (inactive)
GI50 (OVCAR-8): 22.1 µM (inactive)
GI50 (PC-3): 29.2 µM (inactive)
GI50 (RPMI-8226): 13.1 µM (inactive)
GI50 (RXF 393): 13.6 µM (inactive)
GI50 (SF-268): 25.5 µM (inactive)
GI50 (SF-539): 24 µM (inactive)
GI50 (SK-MEL-5): 16.1 µM (inactive)
GI50 (SK-OV-3): 23.7 µM (inactive)
GI50 (SNB-19): 46.9 µM (inactive)
GI50 (SR): 12.6 µM (inactive)
GI50 (TK-10): 11.3 µM (inactive)

COc1cc2c(c3c1c(=O)c1ccccc1n3C)C=C([N+](=O)[O-])C(C)(C)O2
GI50 (A498): 0.0253 µM (active)
GI50 (CCRF-CEM): 0.468 µM (active)
GI50 (HT-29): 0.522 µM (active)
GI50 (IGROV-1): 0.575 µM (active)
GI50 (KM12): > 100 µM (inactive)
GI50 (M14): 0.157 µM (active)
GI50 (MDA-MB-435): 0.0931 µM (active)
GI50 (OVCAR-3): > 100 µM (inactive)
GI50 (OVCAR-4): > 100 µM (inactive)
GI50 (OVCAR-8): 0.532 µM (active)
GI50 (PC-3): > 100 µM (inactive)
GI50 (RPMI-8226): > 31.6 µM (inactive)
GI50 (RXF 393): 0.132 µM (active)
GI50 (SF-268): 0.608 µM (active)
GI50 (SF-539): 1.36 µM (inactive)
GI50 (SK-MEL-5): 0.0141 µM (active)
GI50 (SK-OV-3): 0.356 µM (active)
GI50 (SNB-19): 1.69 µM (inactive)
GI50 (SR): 0.124 µM (active)
GI50 (TK-10): > 65.2 µM (inactive)

O=C1NC(SSC2=NNC3(C(=O)N2)c2ccccc2-c2ccccc23)=NNC12c1ccccc1-c1ccccc12
GI50 (A498): > 10 µM (inactive)
GI50 (CCRF-CEM): > 10 µM (inactive)
GI50 (HT-29): > 10 µM (inactive)
GI50 (IGROV-1): > 10 µM (inactive)
GI50 (KM12): > 10 µM (inactive)
GI50 (M14): > 10 µM (inactive)
GI50 (MDA-MB-435): > 10 µM (inactive)
GI50 (OVCAR-3): > 10 µM (inactive)
GI50 (OVCAR-4): > 10 µM (inactive)
GI50 (OVCAR-8): > 10 µM (inactive)
GI50 (PC-3): > 10 µM (inactive)
GI50 (RPMI-8226): > 10 µM (inactive)
GI50 (RXF 393): > 10 µM (inactive)
GI50 (SF-268): > 10 µM (inactive)
GI50 (SF-539): > 10 µM (inactive)
GI50 (SK-MEL-5): > 10 µM (inactive)
GI50 (SK-OV-3): > 10 µM (inactive)
GI50 (SNB-19): > 10 µM (inactive)
GI50 (SR): > 10 µM (inactive)
GI50 (TK-10): > 10 µM (inactive)

O=C1CS/C(=N/N=C/c2cn(Cc3ccc(Cl)cc3Cl)c3ccccc23)N1
GI50 (A498): 19.9 µM (inactive)
GI50 (CCRF-CEM): 15.8 µM (inactive)
GI50 (HT-29): 50.1 µM (inactive)
GI50 (IGROV-1): 73.3 µM (inactive)
GI50 (KM12): 54.3 µM (inactive)
GI50 (M14): 36.5 µM (inactive)
GI50 (MDA-MB-435): 25 µM (inactive)
GI50 (OVCAR-3): 59 µM (inactive)
GI50 (OVCAR-4): 21.8 µM (inactive)
GI50 (OVCAR-8): 10.8 µM (inactive)
GI50 (PC-3): 19.6 µM (inactive)
GI50 (RPMI-8226): 52.1 µM (inactive)
GI50 (RXF 393): 24.9 µM (inactive)
GI50 (SF-268): 30.8 µM (inactive)
GI50 (SF-539): 18.2 µM (inactive)
GI50 (SK-MEL-5): 35.6 µM (inactive)
GI50 (SK-OV-3): > 100 µM (inactive)
GI50 (SNB-19): 35.9 µM (inactive)
GI50 (SR): 14.1 µM (inactive)
GI50 (TK-10): > 100 µM (inactive)

C=C1C(C(O)C[C@H](C)C2O[C@@]3(CCCCO3)CCC2C)O[C@@H]2CCC3(CCC(/C=C/[C@@H](C)C4CC(C)=CC5(O4)O[C@H](C[C@](C)(O)C(=O)O)CCC5O)O3)OC2[C@@H]1O (stereo not given in full)
GI50 (A498): 0.00564 µM (active)
GI50 (CCRF-CEM): 0.00826 µM (active)
GI50 (HT-29): 0.00828 µM (active)
GI50 (IGROV-1): 0.0217 µM (active)
GI50 (KM12): 0.00374 µM (active)
GI50 (M14): 0.00176 µM (active)
GI50 (MDA-MB-435): 0.00075 µM (active)
GI50 (OVCAR-3): 0.00239 µM (active)
GI50 (OVCAR-4): 0.0286 µM (active)
GI50 (OVCAR-8): 0.00693 µM (active)
GI50 (PC-3): 0.00545 µM (active)
GI50 (RPMI-8226): 0.00315 µM (active)
GI50 (RXF 393): 0.018 µM (active)
GI50 (SF-268): 0.00335 µM (active)
GI50 (SF-539): 0.00254 µM (active)
GI50 (SK-MEL-5): 0.00308 µM (active)
GI50 (SK-OV-3): 0.00955 µM (active)
GI50 (SNB-19): 0.0027 µM (active)
GI50 (SR): 0.00964 µM (active)
GI50 (TK-10): 0.0162 µM (active)

Cc1ccc(S(=O)(=O)NC(=O)Nc2nc[nH]n2)cc1
GI50 (A498): > 100 µM (inactive)
GI50 (CCRF-CEM): > 100 µM (inactive)
GI50 (HT-29): > 100 µM (inactive)
GI50 (IGROV-1): > 100 µM (inactive)
GI50 (KM12): > 100 µM (inactive)
GI50 (M14): > 100 µM (inactive)
GI50 (MDA-MB-435): > 100 µM (inactive)
GI50 (OVCAR-3): > 100 µM (inactive)
GI50 (OVCAR-4): > 100 µM (inactive)
GI50 (OVCAR-8): > 100 µM (inactive)
GI50 (PC-3): > 100 µM (inactive)
GI50 (RPMI-8226): > 100 µM (inactive)
GI50 (RXF 393): > 100 µM (inactive)
GI50 (SF-268): > 100 µM (inactive)
GI50 (SF-539): > 100 µM (inactive)
GI50 (SK-MEL-5): > 100 µM (inactive)
GI50 (SK-OV-3): > 100 µM (inactive)
GI50 (SNB-19): > 100 µM (inactive)
GI50 (SR): > 100 µM (inactive)
GI50 (TK-10): > 100 µM (inactive)
